From patent US4246343A, “Microbial detection and enumeration method and apparatus” (University of Virginia and National Aeronautics & Space …, priority 1979, dated 1981)
Like-named read-outs stand apart in the source and are kept apart here.

Key:
P. aeruginosa (ATCC) = experiment: Electroanalytically determined MIC, gram-negative bacteria; assay type: cell-based, Pseudomonas aeruginosa, ATCC 9721; settings: Pseudomonas aeruginosa
Excerpt: (§1) Identical lots of media and antimicrobial agents were used in the susceptibility tests performed. The media used were trypticase soy agar (TSA) and TSB from Baltimore Biological Laboratories (BBL), Cockeysville, Maryland. The 12 antimicrobial agents used in the experiments, which were chosen on the basis of their clinical usefulness, were laboratory reference standards including the following antibiotics: penicillin G potassium, caphalothin sodium, tobramycin, vancomycin hydrochloride and streptomycin sulfate obtained from Eli Lilly and Co.; tetracycline and carbenicillin obtained from Pfizer Laboratories; ampicillin and sodium nafcillin from Wyeth Laboratories; kanamycin and methicillin from Bristol Laboratories; gentamicin from Schering.
(§2) The following cultures were obtained from Hoffmann-LaRoche, Inc. and were derived from the American Type Culture Collection (ATCC) organisms as indicated: Escherichia coli, "Seattle Strain" ATCC 25922, Klebsiella pneumoniae ATCC 27736; Pseudomonas aeruginosa, ATCC 9721. These bacteria are gram negative bacteria. The following bacteria are gram positive: Staphylococcus aureus, "Seattle Strain" ATCC 25923; Staphylococcus epiderdimis ATCC 14990; and Streptococcus pyogenes, ATCC 10389. In addition, clinical specimens of these same six organisms were obtained from sensitivity isolates from the University of Virginia Hospital Department of Clinical Pathology Bacteriology Section. These organisms, both pathogenic and non-pathogenic (Staphylococcus epidermidis), were chosen because they are some of the most frequently encountered organisms in clinical isolates.
(§3) Inocula were prepared by making a 100-fold dilution×2 of an overnight TSB culture of the organism to be tested in sterile TSB prewarmed to 35° C. Thus, the total dilution of overnight stock was 10^-4. From the 10^-4 series, 0.3 ml was transferred to a test tube (Falcon, disposable #2057) containing 2.7 ml of TSB if the growth control, or 2.6 ml of TSB plus 0.1 ml of a particular concentration of an appropriate antibiotic to be tested. The antibiotic was weighed on an analytical balance, according to each agent's activity standard, and diluted with sterile distilled water in a volumetric flask to achieve a stock solution of 1000 mcg/ml which was then frozen in small aliquots. Further dilutions as necessary for susceptibility testing were also achieved through the addition of sterile distilled water to this stock concentration. Viable counts were made by plating appropriate dilutions from the 10^-4 series on TSA and counting colonies after 24 hours incubation at 35° C. Viable counts were also made on each microorganism at the time of MDC and again at the end of the 24 hour test period to confirm the minimum inhibitory concentration (MIC).
(§4) The experimental apparatus used in this study to monitor the inhibition of growth due to the addition of antibiotics consisted of test tubes, up to and including 8, size 17×100 mm, each containing a sterilized (by boiling) Pt-SCE combination electrode (Sargent-Welch, S-30101-15), plus TSB, microorganisms, and antibiotic where appropriate, positioned in a 35° C. heating block. Leads from the electrode were connected to a high impedance (greater than 10^8 ohms) potentiometer, or voltage following device, which in turn was connected to a strip chart recorder (Hewlett-Packard type 680M). Microbial growth was measured by an increase in voltage in the negative direction with time as recorded on the strip chart recorder.
(§5) FIG. 12 is a stripchart recording of the antimicrobial response curve of a four channeled expriment involving a clinical specimen of the non-hydrogenproducing, Gram-positive bacteria Staphylococcus epidermidis treated with 0.012, 0.5 and 1.0 mcg/ml of the antibiotic ampicillin as shown in curves B, C and D respectively. […]

S. aureus (ATCC) = experiment: Electroanalytically determined MIC, gram-positive bacteria; assay type: cell-based, "Seattle Strain" ATCC 25923; settings: Staphylococcus aureus
Excerpt: as §1, §2, §3, §4, §5

E. coli (clinical) = experiment: Electroanalytically determined MIC, gram-negative bacteria; assay type: cell-based, Escherichia coli; settings: Escherichia coli
Excerpt: as §1, §2, §3, §4, §5

P. aeruginosa (clinical) = experiment: as above; assay type: cell-based, Pseudomonas aeruginosa; settings: Pseudomonas aeruginosa
Excerpt: as §1, §2, §3, §4, §5

S. epidermidis (ATCC) = experiment: Electroanalytically determined MIC, gram-positive bacteria; assay type: cell-based, Staphylococcus epiderdimis ATCC 14990; settings: Staphylococcus epidermidis
Excerpt: as §1, §2, §3, §4, §5

E. coli (ATCC) = experiment: Electroanalytically determined MIC, gram-negative bacteria; assay type: cell-based, Escherichia coli, "Seattle Strain" ATCC 25922; settings: Escherichia coli
Excerpt: as §1, §2, §3, §4, §5

[1] = system: S. epidermidis (clinical); experiment: Electroanalytically determined MIC / antimicrobial response curve, gram-positive bacteria; assay type: cell-based, Staphylococcus epidermidis; settings: for MIC: Staphylococcus epidermidis
Excerpt: as §1, §2, §3, §4, §5

K. pneumoniae (ATCC) = experiment: Electroanalytically determined MIC / antimicrobial response curve, gram-negative bacteria; assay type: cell-based, Klebsiella pneumoniae ATCC 27736; settings: for MIC: Klebsiella pneumoniae
Excerpt: as §1, §2, §3, §4, §5

S. aureus (clinical) = experiment: Electroanalytically determined MIC, gram-positive bacteria; assay type: cell-based; settings: Staphylococcus aureus
Excerpt: as §1, §2, §3, §4, §5

K. pneumoniae (clinical) = experiment: Electroanalytically determined MIC, gram-negative bacteria; assay type: cell-based, Klebsiella pneumoniae; settings: Klebsiella pneumoniae
Excerpt: as §1, §2, §3
as §4, with “recorder. […]” for “recorder.”

[2] = S. aureus (ATCC), TSB, 35° C., 24 hour test period, read-out: MIC
[3] = E. coli (clinical), TSB, 35° C., 24 hour test period, read-out: MIC
[4] = S. epidermidis (ATCC), TSB, 35° C., 24 hour test period, read-out: MIC
[5] = E. coli (ATCC), TSB, 35° C., 24 hour test period, read-out: MIC
[6] = S. epidermidis (clinical), TSB, 35° C., 24 hour test period, read-out: MIC
[7] = K. pneumoniae (ATCC), TSB, 35° C., 24 hour test period, read-out: MIC
[8] = S. aureus (clinical), TSB, 35° C., 24 hour test period, read-out: MIC

| Structure (SMILES) | MIC (P. aeruginosa (ATCC); 24 h) [µg/mL] | MIC (S. aureus (ATCC); [2]) [µg/mL] | MIC (E. coli (clinical); [3]) [µg/mL] | MIC (P. aeruginosa (clinical); 24 h) [µg/mL] | MIC (S. epidermidis (ATCC); [4]) [µg/mL] | MIC (E. coli (ATCC); [5]) [µg/mL] | MIC [1, 6] [µg/mL] | MIC (K. pneumoniae (ATCC); [7]) [µg/mL] | MIC (S. aureus (clinical); [8]) [µg/mL] | MIC (S. aureus (ATCC); 24 h) [µg/mL] | MIC (E. coli (clinical); 24 h) [µg/mL] | MIC (S. epidermidis (ATCC); 24 h) [µg/mL] | MIC (E. coli (ATCC); 24 h) [µg/mL] | MIC ([1]; 24 h) [µg/mL] | MIC (K. pneumoniae (ATCC); 24 h) [µg/mL] | MIC (S. aureus (clinical); 24 h) [µg/mL] | also measured |
| --- | --- | --- | --- | --- | --- | --- | --- | --- | --- | --- | --- | --- | --- | --- | --- | --- | --- |
| CC1(C)S[C@@H]2[C@H](NC(=O)[C@H](N)c3ccccc3)C(=O)N2[C@H]1C(=O)O [Amp, ampicillin] | > 128 | 0.12 to 0.6 | 6 | > 128 | 1 | 4 | 0.8 to 1 | 32 | 0.12 |  |  |  |  |  |  |  | growth inhibition (antimicrobial response curve, FIG. 12) ([1]; S. epidermidis clinical specimen, 0.012, 0.5 and 1.0 mcg/ml): increasingly inhibited |
| CC1(C)S[C@@H]2[C@H](NC(=O)C(C(=O)O)c3ccccc3)C(=O)N2[C@H]1C(=O)O (some centres unmarked) [Carb, carbenicillin] |  |  | 5 |  |  | 4 |  | > 128 |  |  |  |  |  |  |  |  | MIC (P. aeruginosa (ATCC); P. aeruginosa (ATCC), TSB, 35° C., 24 hour test period, read-out: MIC): 64 µg/mL; MIC (P. aeruginosa (clinical); P. aeruginosa (clinical), TSB, 35° C., 24 hour test period, read-out: MIC): 64 µg/mL; MIC (K. pneumoniae (clinical); K. pneumoniae (clinical), TSB, 35° C., 24 hour test period, read-out: MIC): > 128 µg/mL |
| CC(=O)OCC1=C(C(=O)O)N2C(=O)[C@@H](NC(=O)Cc3cccs3)[C@H]2SC1 [Ceph, cephalothin] | > 360 |  |  | > 360 |  |  |  |  |  | 0.15 to 0.2 | 9 | 0.1 | 8 | 0.5 to 1 | 1 | 0.8 to 1.6 | growth inhibition (antimicrobial response curve, FIG. 13) (K. pneumoniae (ATCC); K. pneumoniae ATCC, 0.3, 0.4, 0.5, 1.0 and 2.0 mcg/ml): increasingly inhibited |
| NC[C@H]1O[C@H](O[C@H]2[C@H](O)[C@@H](O[C@H]3O[C@H](CO)[C@@H](O)[C@H](N)[C@H]3O)[C@H](N)C[C@@H]2N)[C@H](O)[C@@H](O)[C@@H]1O [Kana, kanamycin] | 32 to 64 |  |  | 64 |  |  |  |  |  | 0.2 | 4 | 0.4 | 3 | 0.6 | 3 | 0.5 to 1 | MIC (K. pneumoniae (clinical); 24 h): 4 µg/mL |
| COc1cccc(OC)c1C(=O)N[C@@H]1C(=O)N2[C@@H]1SC(C)(C)[C@@H]2C(=O)O [Meth, methicillin] |  | 0.7 |  |  | 0.5 to 1 |  | 0.5 to 1 |  | 0.7 |  |  |  |  |  |  |  |  |
| CCOc1ccc2ccccc2c1C(=O)N[C@@H]1C(=O)N2[C@@H]1SC(C)(C)[C@@H]2C(=O)O [Naf, sodium nafcillin] |  | 0.5 |  |  | 0.5 to 1 |  | 0.5 to 1 |  | 0.5 |  |  |  |  |  |  |  |  |
